# Key:
# HEK293 T Cell = experiment: MTT assay for cytotoxicity; format: cell-based; details: 100 nM to 1,000 nM, FIG. 29
# Protocol: (§1) To examine safety of the four kinds of novel compounds, an MTT assay for a cytotoxicity test, an Ames test for rapid evaluation of genotoxicity, and an hERG assay for evaluation of potential effects on cardiac repolarization were carried out. Methods generally used were conducted for the examination.
# (§2) In detail, in the MTT assay, 80 to 800 times higher concentrations (100 nM to 1,000 nM) than the […] (1 ng/mL=1.24 nM) were determined as test concentrations of the four kinds of novel compounds. and the drug cytotoxicity was measured in mammalian normal cells (HEK293 T Cell). In the Ames test, the four kinds of novel compounds were treated at a concentration of 4 μg, 16 μg, 64 μg per plate, respectively, and the four kinds of novel compounds were evaluated by examining whether reverse mutation was induced a histidine auxotroph strain (Salmonella typhimurium TA98) and a tryptophan auxotroph strain (Escherichia coli WP2 uvrA). In the hERG assay, 0 μM, 2 μM, 8 μM, and 32 μM of each of the four kinds of novel compounds were treated to two or more numbers of cells. One CHO hERG cell was perfused with a normal tyrode solution. After confirming that the hERG channel current was recorded consistently for 3 to 4 sweeps, an excipient control group and the groups, each treated with one of the four kinds of novel compounds, were perfused for about 1 minute to 2 minutes or longer, and the magnitude of the hERG channel current was allowed to constantly record, and the magnitude of the relative current (pA or nA) and the suppression rate (%) were measured.
# [1] = test system: Escherichia coli WP2 uvrA; experiment: Ames test (reverse mutation), tryptophan auxotroph strain; details: 4 μg, 16 μg, 64 μg per plate
# Protocol: as §1, §2
# [2] = test system: primary cultured murine hippocampal neurons; experiment: functional synaptogenic activity, patch-clamp recordings of excitatory synaptic currents; format: cell-based; details: treatment concentration 1 ng/mL, days 10-14 after primary culture
# Protocol: The functional synaptogenic activity of the four kinds of novel compounds was examined using primary cultured murine hippocampal neurons according to a method reported by D. Park. et al. (Sci. Rep. 7:7260, 2017). In detail, hippocampal neurons on days 10-14 after primary culture while being exposed to FK506 or each of the four kinds of novel compounds (treatment concentration: 1 ng/mL) was subjected to patch-clamp recordings to measure frequency of excitatory synaptic currents. The frequency of excitatory synaptic currents is used as an index for changes in the number of synapses.
# hERG channel = biological target: T1, hERG channel (Homo sapiens, UniProt Q12809); experiment: hERG assay in CHO hERG cells; format: cell-based; details: 0 μM, 2 μM, 8 μM, and 32 μM
# T1 construct: expressed in transfected cells; host or cells: CHO hERG cells
# T1 sequence (Q12809 whole entry): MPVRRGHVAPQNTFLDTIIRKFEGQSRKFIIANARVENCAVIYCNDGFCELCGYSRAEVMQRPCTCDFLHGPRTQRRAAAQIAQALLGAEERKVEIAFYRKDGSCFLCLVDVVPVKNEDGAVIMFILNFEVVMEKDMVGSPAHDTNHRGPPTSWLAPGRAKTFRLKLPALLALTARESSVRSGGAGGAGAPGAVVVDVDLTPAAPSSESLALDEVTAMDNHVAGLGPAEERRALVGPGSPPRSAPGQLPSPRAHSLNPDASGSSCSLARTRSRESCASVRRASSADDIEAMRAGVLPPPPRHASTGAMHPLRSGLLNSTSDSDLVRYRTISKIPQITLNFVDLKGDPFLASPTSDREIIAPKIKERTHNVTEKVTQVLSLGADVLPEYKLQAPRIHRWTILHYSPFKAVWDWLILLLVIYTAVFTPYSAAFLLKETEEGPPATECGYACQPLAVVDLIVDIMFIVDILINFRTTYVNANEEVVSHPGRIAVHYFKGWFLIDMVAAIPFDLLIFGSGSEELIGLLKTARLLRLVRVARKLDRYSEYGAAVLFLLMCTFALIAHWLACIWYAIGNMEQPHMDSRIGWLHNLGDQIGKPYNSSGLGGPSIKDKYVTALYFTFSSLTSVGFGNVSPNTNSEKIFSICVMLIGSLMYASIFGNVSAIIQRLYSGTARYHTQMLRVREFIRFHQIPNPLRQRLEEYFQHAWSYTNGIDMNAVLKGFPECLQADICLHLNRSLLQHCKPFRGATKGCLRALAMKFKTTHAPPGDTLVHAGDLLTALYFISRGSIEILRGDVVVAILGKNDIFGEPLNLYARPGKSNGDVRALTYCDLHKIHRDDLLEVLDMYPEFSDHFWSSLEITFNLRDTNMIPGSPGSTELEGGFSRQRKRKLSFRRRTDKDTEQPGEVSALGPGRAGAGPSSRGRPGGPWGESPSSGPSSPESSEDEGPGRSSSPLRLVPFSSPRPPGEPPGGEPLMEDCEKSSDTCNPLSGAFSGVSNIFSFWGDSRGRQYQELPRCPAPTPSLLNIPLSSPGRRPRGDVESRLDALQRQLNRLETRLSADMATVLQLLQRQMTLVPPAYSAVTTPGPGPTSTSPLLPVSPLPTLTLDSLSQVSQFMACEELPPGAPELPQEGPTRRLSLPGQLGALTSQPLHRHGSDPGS
# Excerpt: Further, in still another specific embodiment of the present invention, safety was confirmed in a 3-(4,5-dimethylthiazol-2-yl)-2,5-diphenyltetrazolium bromide (MTT) assay (FIG. 29) for cytotoxicity tests of the four kinds of novel compounds, an Ames test for rapid evaluation of genotoxicity, a human eag-related gene (hERG) assay for evaluation of potential effects on cardiac repolarization.
# as §1, §2
# [3] = test system: nigrostriatal dopaminergic pathway; experiment: MPTP-induced Parkinson's disease animal model, TH immunohistochemistry; format: in vivo, mouse; details: cannula injection into brain for 3 days, 5 mg/mL, MPTP i.p. on day 2, measured day 4, FIG. 28A
# [4] = test system: Salmonella typhimurium TA98; experiment: Ames test (reverse mutation), histidine auxotroph strain; details: 4 μg, 16 μg, 64 μg per plate
# Protocol: as §1, §2
# CD4+ T cells = experiment: in vitro T-cell activation assay (CTV retention, flow cytometry); format: cell-based, mouse
# Excerpt: The reduced level of the immunosuppressive activity of the four kinds of novel compounds was examined using a common in vitro T-cell activation assay (J. Immunol. 143:718-726, 1989). […] When CD4+ T cells are stained with Cell Trace™ Violet (CTV), CTV retention of each cell decreases, as cells divide and T cells proliferate according to the immune response, and thus immunosuppressive activity was examined using the CTV retention as an index.
# Single cells were isolated from the spleen of 6- to 8-week-old B6J laboratory mouse, and CD4+ T cells were isolated using MagniSort® Mouse CD4 T cell Enrichment Kit (eBioscience). CD4+ T cells were stained with Cell Trace™ Violet (CTV) Cell Proliferation Kit (Molecular Probes) and FK506 or each of the four kinds of novel compounds was added at a concentration of 0.01 ng/mL, 0.1 ng/mL, 1 ng/mL, 10 ng/mL, 100 ng/mL, 1000 ng/mL, followed by incubation for 72 hours. For activation of T cells. Dynabeads® Mouse T-Activator CD3/CD28 (Gibco) was used. As a control group, non-activated T cells were used. After incubation, CTV intensity was analyzed by flow cytometry.
# [5] = test system: primary cultured murine hippocampal neurons; experiment: neurite outgrowth in primary cultured hippocampal neurons; format: cell-based; details: treatment concentration 1 ng/mL, neurite lengths, FIG. 26
# Protocol: The neuronal growth-promoting ability of the four kinds of novel compounds was examined using primary cultured murine hippocampal neurons according to a method reported by Jing Sun et al. (J. Neuroinflam. 15:180, 2018). […] The neurite lengths were measured on photographic prints according to a previously reported method (J. Pharmacol. Exp. Ther. 302:1278-1285, 2002).
Compound,cytotoxicity (MTT) (HEK293 T Cell),reverse mutation induction (Ames test) [1],"spontaneous excitatory synaptic currents (sEPSCs), frequency [2]",risk of cardiac repolarization (hERG channel current) (hERG channel),recovery in the density of neuron fibers [3],reverse mutation induction (Ames test) [4],"immunosuppressive activity as compared with FK506 (CD4+ T cells; T cell proliferation, CTV intensity, Table 7 and FIG. 25)","IC50 (CD4+ T cells; activated mouse CD4+ T cells (CD3/CD28), 72 hours incubation, CTV intensity by flow cytometry, read-out: Immunosuppression IC50)",neurite outgrowth effect [5],"Immunosuppression IC50 (CD4+ T cells; activated mouse CD4+ T cells (CD3/CD28), 72 hours incubation, CTV intensity by flow cytometry)"
"CCC[C@@H]1/C=C(\C)C[C@H](C)C[C@H](OC)[C@H]2O[C@@](O)(CC(=O)N3CCC[C@H]3C(=O)O[C@H](/C(C)=C/[C@@H]3CC[C@@H](O)[C@H](OC)C3)[C@H](C)[C@@H](O)CC1=O)[C@H](C)C[C@@H]2OC [9-deoxo-36,37-dihydro-prolyl FK506]",no cytotoxicity was observed,without inducing reverse mutations,3.29±0.22,without risk of cardiac repolarization,"superior recovery in the density of neuron fibers, as compared to those treated with FK506",without inducing reverse mutations,–,–,–,–
CC[C@@H]1/C=C(\C)C[C@H](C)C[C@H](OC)[C@H]2O[C@@](O)(CC(=O)N3CCC[C@H]3C(=O)O[C@H](/C(C)=C/[C@@H]3CC[C@@H](O)[C@H](O)C3)[C@H](C)[C@@H](O)CC1=O)[C@H](C)C[C@@H]2OC [9-deoxo-31-O-demethyl-prolyl FK520],no cytotoxicity was observed,without inducing reverse mutations,–,without risk of cardiac repolarization,"superior recovery in the density of neuron fibers, as compared to those treated with FK506",without inducing reverse mutations,lowest immunosuppressive activity,7.09 µg/mL,–,–
C=CC[C@@H]1/C=C(\C)C[C@H](C)C[C@H](OC)[C@H]2O[C@@](O)(C(=O)C(=O)N3CCCC[C@H]3C(=O)O[C@H](/C(C)=C/[C@@H]3CC[C@@H](O)[C@H](OC)C3)[C@H](C)[C@@H](O)CC1=O)[C@H](C)C[C@@H]2OC [FK506],–,–,2.61±0.18,–,–,–,–,–,–,–
"CCC[C@@H]1/C=C(\C)C[C@H](C)C[C@H](OC)[C@H]2O[C@@](O)(CC(=O)N3CCC[C@H]3C(=O)O[C@H](/C(C)=C/[C@@H]3CC[C@@H](O)[C@H](O)C3)[C@H](C)[C@@H](O)CC1=O)[C@H](C)C[C@@H]2OC [9-deoxo-31-O-demethyl-36,37-dihydro-prolyl FK506]",no cytotoxicity was observed,without inducing reverse mutations,2.63±0.27,without risk of cardiac repolarization,"superior recovery in the density of neuron fibers, as compared to those treated with FK506",without inducing reverse mutations,–,–,–,–
9-deoxo-prolyl FK520,–,without inducing reverse mutations,–,without risk of cardiac repolarization,"superior recovery in the density of neuron fibers, as compared to those treated with FK506",without inducing reverse mutations,–,–,"superior neurite outgrowth effect, as compared with FK506",3.2888 µg/mL

# Source: patent publication US20230137836A1, “NOVEL PROLYLFK506 DERIVATIVES HAVING NEURITE GROWTH AND SYNAPSE FORMATION ACTIVITIES AND USES THEREOF” (Seoul National University R&DB Foundation, priority 2020, published 2023)
